Reference: patent US20030124150A1, “Kit for reducing aching” (priority 2001, published 2003)

Experiments:
subjects [1] = assay: Study 3: Compound A escalating dosing with 24-hour drug holiday (Examples 6 and 7), myalgia and back pain (aching); assay type: in vivo; conditions: for Back pain, Mild / Back pain, Moderate / Back pain, Severe / Myalgia, Mild / Myalgia, Moderate / Myalgia, Severe: 20 mg tid 7 days, 24-hour drug holiday, 20 mg tid 6 days, subjects affected/dosed
Description: (§1) All adverse events observed or recorded during the studies were recorded by the investigator, including information about concomitant illnesses and therapeutic interventions. For all adverse events, the investigator pursued and obtained information adequate to determine the outcome of the adverse event. Physical examinations at screening and medical histories of all subjects were normal with no indication of any joint, muscle, or tendon weakness.
Nine subjects were given 2.5 mg of Compound A three times a day (tid) for 7 days followed by 20 mg tid for a further 7 days. The subjects were given a 24-hour drug holiday, i.e. a day without taking the inhibitor, then 20 mg tid dosing was continued for another 6 days. Dosage took the form of immediate release tablets.
Nine subjects were given 2.5 mg of Compound A three times a day (tid) for 4 days, then 7.5 mg tid for 3 days, then 20 mg tid for a further 7 days. The subjects were given a 24-hour drug holiday, i.e. a day without taking the inhibitor, then 20 mg tid dosing was continued for another 6 days. Dosage took the form of immediate release tablets.

subjects [2] = assay: Study 2: Compound A multiple dosing, non-escalating (Example 3) vs escalating (Example 4), myalgia/back pain (aching); assay type: in vivo; conditions: for Myalgia/back pain, Mild/moderate / Myalgia/back pain, Severe: subjects affected/dosed
Description: as §1
Six subjects were given 20 mg of Compound A three times a day (tid) for 7 days. Dosage took the form of immediate release tablets.
Nine subjects were given 2.5 mg of Compound A three times a day (tid) for 7 days, then 7.5 mg tid for 7 days, then 20 mg tid for a further 7 days. Dosage took the form of immediate release tablets.

subjects [3] = assay: Aching as side effect of multiple dosing of PDE5 inhibitors (background observations); conditions: for aching as a side effect of multiple dosing: in vivo
Text: A problem associated with the multiple daily dosing of PDE5 inhibitors is that subjects experience, as a side effect, aching in certain parts of the body. Subjects describe this aching as predominantly a dull aching without muscle tenderness. Aching is experienced predominantly in the“postural muscles”, typically the calves, thighs, buttocks, lower back, shoulders and neck regions. These symptoms may be described as myalgia or back pain; for the purposes of this application, they will be referred to as“aching”.

subjects [4] = assay: Study 1: double blind, placebo-controlled, multiple dose study of sildenafil, adverse events (myalgia, back pain); assay type: in vivo; conditions: for Back pain / Myalgia: oral capsules, subjects affected/subjects dosed
Description: as §1
Dosage took the form of oral capsules.

subjects [5] = conditions: reported by H Padma-Nathan et al and Eli Lilly/ICOS presentation; cited from earlier work
[6] = Example 6 escalating dosing regime
[7] = Example 7: 2.5 mg tid 4 days, 7.5 mg tid 3 days
[8] = Example 7 escalating dosing regime
[9] = Example 3: 20 mg tid for 7 days, immediate release tablets
[10] = Example 4: 2.5 mg tid 7 days, then 7.5 mg tid 7 days, then 20 mg tid 7 days
[11] = Example 4 escalating dosing regime

CCCc1nn(C)c2c(=O)[nH]c(-c3cc(C(=O)CN4CCOCC4)ccc3OCC)nc12 [Compound A, 5-(2-ethoxy-5-morpholinoacetylphenyl)-1-methyl-3-n-propyl-1,6-dihydro-7H-pyrazolo[4,3-d]pyrimidin-7-one]
incidence of aching after the 24-hour drug-free period (subjects [1]; Example 6, 20 mg tid resumed): no apparent increase
Back pain, Mild (subjects [1]; Example 6: 2.5 mg tid 7 days): 2/9
Back pain, Moderate (subjects [1]; Example 6: 2.5 mg tid 7 days): 0/9
Back pain, Severe (subjects [1]; Example 6: 2.5 mg tid 7 days): 0/9
Myalgia, Mild (subjects [1]; Example 6: 2.5 mg tid 7 days): 2/9
Myalgia, Moderate (subjects [1]; Example 6: 2.5 mg tid 7 days): 3/9
Myalgia, Severe (subjects [1]; Example 6: 2.5 mg tid 7 days): 1/9
aching compared with non-escalating regime of Example 3 (subjects [1]; [6]): significant reduction in aching
withdrawals (subjects [1]; [6]): no withdrawals
effectiveness of triple dosing in reducing aching (subjects [1]; Example 7 (triple dosing)): particularly effective in reducing aching
incidence of aching after the 24-hour drug-free period (subjects [1]; Example 7, 20 mg tid resumed): no apparent increase
Back pain, Mild (subjects [1]; [7]): 0/9
Back pain, Moderate (subjects [1]; [7]): 0/9
Back pain, Severe (subjects [1]; [7]): 0/9
Myalgia, Mild (subjects [1]; [7]): 4/9
Myalgia, Moderate (subjects [1]; [7]): 1/9
Myalgia, Severe (subjects [1]; [7]): 0/9
aching compared with non-escalating regime of Example 3 (subjects [1]; [8]): significant reduction in aching
withdrawals (subjects [1]; [8]): no withdrawals
Myalgia/back pain, Mild/moderate (subjects [2]; [9]): 0/6
Myalgia/back pain, Severe (subjects [2]; [9]): 6/6
subjects withdrawn due to the severity of the aching (subjects [2]; Example 3: 20 mg tid, after only 4 days of treatment, six subjects): four
Myalgia/back pain, Mild/moderate (subjects [2]; [10]): 1/9
Myalgia/back pain, Severe (subjects [2]; [10]): 1/9
aching compared with non-escalating regime of Example 3 (subjects [2]; [11]): significant reduction in aching
withdrawals (subjects [2]; [11]): no withdrawals

CCCOc1ccc(S(=O)(=O)N2CCN(CC)CC2)cc1-c1nc2c(CC)n(Cc3ccccn3)nc2c(=O)[nH]1 [WO 98/49166, Example 4, 3-ethyl-5-[5-(4-ethylpiperazin-1-ylsulphonyl)-2-n-propoxyphenyl]-2-(pyridin-2-yl)methyl-2,6-dihydro-7H-pyrazolo[4,3-d]pyrimidin-7-one]
aching as a side effect of multiple dosing (subjects [3]): observed

CCc1c2nc(-c3cc(S(=O)(=O)N4CCN(CC)CC4)cnc3OCCOC)[nH]c(=O)c2nn1Cc1ccccn1 [WO 99/54333, Example 4, 3-ethyl-5-[5-(4-ethylpiperazin-1-ylsulphonyl)-2-(2-methoxyethoxy)pyridin-3-yl]-2-(pyridin-2-yl)methyl-2,6-dihydro-7H-pyrazolo[4,3-d]-pyrimidin-7-one]
aching as a side effect of multiple dosing (subjects [3]): observed

CCCc1nn(C)c2c(=O)[nH]c(-c3cc(S(=O)(=O)N4CCN(C)CC4)ccc3OCC)nc12 [sildenafil, 5-[2-ethoxy-5-(4-methyl-1-piperazinylsulphonyl)phenyl]-1-methyl-3-n-propyl-1,6-dihydro-7H-pyrazolo[4,3-d]pyrimidin-7-one]
Back pain (subjects [4]; 25 mg tid): 2/10
Myalgia (subjects [4]; 25 mg tid): 2/10
Back pain (subjects [4]; 50 mg tid): 2/9
Myalgia (subjects [4]; 50 mg tid): 5/9
reports of severe treatment-related adverse events which led to discontinuance of the treatment (subjects [4]; 75 mg tid): three
Back pain (subjects [4]; 75 mg tid): 5/8
Myalgia (subjects [4]; 75 mg tid): 3/8
most common adverse events (subjects [4]; 25, 50 or 75 mg tid): back pain, headache and myalgia
persistence of headache and myalgia that occurred after a few days of treatment (subjects [4]; lower doses (25 mg tid and 50 mg tid)): did not persist with further treatment
incidence of aching (subjects [3]; 25 mg tid): 60%
incidence of aching (subjects [3]; 75 mg tid): 100%
day by which aching disappears (subjects [3]; higher doses (for example, 75 mg tid)): sixth or seventh day
day on which aching generally commences (subjects [3]; multiple dosing regime): second or third day

CN1CC(=O)N2[C@H](c3ccc4c(c3)OCO4)c3[nH]c4ccccc4c3C[C@@H]2C1=O [tadalafil, (6R, 12aR)-2,3,6,7,12,12a-hexahydro-2-methyl-6-(3,4-methylenedioxyphenyl)-pyrazino[2′,1′:6,1]pyrido[3,4-b]indole-1,4-dione]
backache and myalgia (subjects [5]): reported to cause backache and myalgia
